Inhibition and melting point data for one compound are collected here from patent US10308643B2, “Heterocyclic compound” (Takeda Pharmaceutical Company Limited, priority 2015, dated 2019).

For one data set, the target named is T1, HDAC1 enzyme (Homo sapiens, UniProt Q13547).
T1 construct: transducing full length HDAC1 and HDAC6 genes into Sf-9 insect cells; GST; purchased SignalChem; host or cells: Sf-9 insect cells
In words: HDAC1/6 Enzyme Inhibitory Assay (HDAC-Glo I/II Assay kit), HDAC1. The conditions noted are these: 1 μM test compound; wells without enzyme = 100% inhibition; read-out: HDAC1 inhibitory rate (%) (1 μM). It is filed as biochemical. The procedure, abridged:
(§1)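 Inhibitory activity derives from HDAC-Glo luminescence, expressed relative to wells lacking enzyme (100% inhibition). Compounds meet full-length GST-purified HDAC1 or HDAC6 for 60 min at room temperature before a 20 min substrate-developer reaction.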

A further data set has as its target T2, HDAC9 enzyme (Homo sapiens, UniProt Q9UKV0).
T2 construct: transducing full length HDAC9 gene into Sf-9 insect cells; made in house; host or cells: Sf-9 insect cells
Description: HDAC9 Enzyme Inhibitory Assay (HDAC-Glo class IIa). It counts as biochemical. To be noted: 1 μM test compound; wells without enzyme = 100% inhibition; read-out: HDAC9 inhibitory rate (%) (1 μM). The procedure, abridged: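 Full-length human HDAC9 from Sf-9 cells, Ni-NTA purified, preincubated with compound for 60 min at room temperature in Tris-HCl pH 7.5 buffer (MgCl2, KCl, NaCl, glutathione, Tween-20). HDAC-Glo class IIa substrate-developer added; luminescence read after 20 min, with no-enzyme wells defining 100% inhibition.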

The next data set has as its target T3, HDAC6 enzyme (Homo sapiens, UniProt Q9UBN7).
T3 construct: transducing full length HDAC1 and HDAC6 genes into Sf-9 insect cells; GST; purchased SignalChem; host or cells: Sf-9 insect cells
T3 sequence (Q9UBN7 1-1215): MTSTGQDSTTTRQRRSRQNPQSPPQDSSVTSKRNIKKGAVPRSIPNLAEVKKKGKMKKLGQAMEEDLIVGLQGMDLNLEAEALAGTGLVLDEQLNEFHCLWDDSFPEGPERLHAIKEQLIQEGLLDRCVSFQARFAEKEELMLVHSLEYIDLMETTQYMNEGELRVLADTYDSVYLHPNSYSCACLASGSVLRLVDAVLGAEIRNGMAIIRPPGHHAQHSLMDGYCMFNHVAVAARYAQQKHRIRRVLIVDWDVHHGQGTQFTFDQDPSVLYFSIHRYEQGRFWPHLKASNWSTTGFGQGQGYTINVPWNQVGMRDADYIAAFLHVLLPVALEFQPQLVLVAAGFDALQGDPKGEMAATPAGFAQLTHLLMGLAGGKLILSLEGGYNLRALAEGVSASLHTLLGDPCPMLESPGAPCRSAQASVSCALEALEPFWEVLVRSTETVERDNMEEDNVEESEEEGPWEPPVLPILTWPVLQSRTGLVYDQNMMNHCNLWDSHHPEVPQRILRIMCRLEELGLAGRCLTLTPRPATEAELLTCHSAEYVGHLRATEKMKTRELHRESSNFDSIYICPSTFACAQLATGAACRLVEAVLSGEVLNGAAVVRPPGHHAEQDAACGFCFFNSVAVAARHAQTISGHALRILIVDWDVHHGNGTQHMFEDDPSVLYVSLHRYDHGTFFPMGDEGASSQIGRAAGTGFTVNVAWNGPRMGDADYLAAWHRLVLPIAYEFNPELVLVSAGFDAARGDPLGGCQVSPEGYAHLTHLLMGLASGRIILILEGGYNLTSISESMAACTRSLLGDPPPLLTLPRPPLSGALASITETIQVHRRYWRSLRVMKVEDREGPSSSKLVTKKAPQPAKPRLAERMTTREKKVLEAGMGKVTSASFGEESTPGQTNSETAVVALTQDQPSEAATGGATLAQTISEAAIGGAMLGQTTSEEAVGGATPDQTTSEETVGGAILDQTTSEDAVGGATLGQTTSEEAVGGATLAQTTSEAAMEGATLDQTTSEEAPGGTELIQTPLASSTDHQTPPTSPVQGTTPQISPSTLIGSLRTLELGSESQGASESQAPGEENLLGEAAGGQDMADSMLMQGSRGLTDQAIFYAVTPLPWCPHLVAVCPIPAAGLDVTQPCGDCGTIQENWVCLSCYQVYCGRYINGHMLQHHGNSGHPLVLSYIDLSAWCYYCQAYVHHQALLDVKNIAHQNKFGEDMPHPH
Description: HDAC1/6 Enzyme Inhibitory Assay (HDAC-Glo I/II Assay kit), HDAC6. It is filed as biochemical. To be noted: 1 μM test compound; wells without enzyme = 100% inhibition; read-out: HDAC6 inhibitory rate (%) (1 μM). The procedure, abridged:
as §1

T1 sequence (Q13547 whole entry): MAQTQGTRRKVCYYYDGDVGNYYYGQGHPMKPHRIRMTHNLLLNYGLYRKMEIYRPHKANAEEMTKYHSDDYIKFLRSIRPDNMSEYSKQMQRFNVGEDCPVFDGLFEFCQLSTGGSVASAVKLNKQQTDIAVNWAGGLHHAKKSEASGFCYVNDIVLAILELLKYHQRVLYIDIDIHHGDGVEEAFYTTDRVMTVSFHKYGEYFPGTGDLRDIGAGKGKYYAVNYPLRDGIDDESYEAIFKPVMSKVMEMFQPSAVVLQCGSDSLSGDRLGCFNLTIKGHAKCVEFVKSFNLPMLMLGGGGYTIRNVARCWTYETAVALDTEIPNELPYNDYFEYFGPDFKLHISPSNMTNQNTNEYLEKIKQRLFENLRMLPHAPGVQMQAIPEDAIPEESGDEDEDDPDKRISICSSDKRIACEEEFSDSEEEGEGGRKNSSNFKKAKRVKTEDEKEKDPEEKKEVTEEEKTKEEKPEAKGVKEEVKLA
T2 sequence (Q9UKV0 whole entry, species assumed): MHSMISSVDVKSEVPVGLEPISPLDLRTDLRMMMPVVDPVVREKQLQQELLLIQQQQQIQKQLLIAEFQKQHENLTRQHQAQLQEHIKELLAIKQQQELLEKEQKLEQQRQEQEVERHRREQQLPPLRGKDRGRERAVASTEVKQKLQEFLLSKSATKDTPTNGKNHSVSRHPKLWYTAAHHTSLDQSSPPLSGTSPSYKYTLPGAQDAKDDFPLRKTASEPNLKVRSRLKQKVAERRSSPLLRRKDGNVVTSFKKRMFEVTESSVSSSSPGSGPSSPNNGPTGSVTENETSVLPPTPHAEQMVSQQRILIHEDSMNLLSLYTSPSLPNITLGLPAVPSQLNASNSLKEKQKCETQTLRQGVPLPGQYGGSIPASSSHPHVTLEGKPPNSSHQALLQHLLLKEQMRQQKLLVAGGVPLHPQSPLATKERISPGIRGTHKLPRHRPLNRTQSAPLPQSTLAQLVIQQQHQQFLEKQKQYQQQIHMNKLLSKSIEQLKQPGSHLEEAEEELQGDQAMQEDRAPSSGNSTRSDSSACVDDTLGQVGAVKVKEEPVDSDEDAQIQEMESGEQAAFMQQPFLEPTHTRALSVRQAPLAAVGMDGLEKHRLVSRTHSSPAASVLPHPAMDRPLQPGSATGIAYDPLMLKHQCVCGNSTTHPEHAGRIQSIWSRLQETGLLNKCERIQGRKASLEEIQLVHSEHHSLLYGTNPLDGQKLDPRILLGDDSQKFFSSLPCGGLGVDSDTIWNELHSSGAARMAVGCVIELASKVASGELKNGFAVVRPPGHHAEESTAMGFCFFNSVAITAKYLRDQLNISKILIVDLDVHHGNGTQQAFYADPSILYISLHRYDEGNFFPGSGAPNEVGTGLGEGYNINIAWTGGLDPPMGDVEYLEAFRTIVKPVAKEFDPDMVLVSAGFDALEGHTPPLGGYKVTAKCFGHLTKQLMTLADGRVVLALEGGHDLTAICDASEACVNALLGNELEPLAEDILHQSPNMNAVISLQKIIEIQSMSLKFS

For the compound `O=C(N[C@@H]1CCCC[C@H]1N1Cc2ccc(-c3noc(C(F)(F)F)n3)cc2C1=O)[C@@H]1CCCO1` [Example 90, (2S)-N-((1R,2R)-2-(1-oxo-6-(5-(trifluoromethyl)-1,2,4-oxadiazol-3-yl)-1,3-dihydro-2H-isoindol-2-yl)cyclohexyl)tetrahydrofuran-2-carboxamide], the melting point (commonly the temperature of the solid-liquid transition) came out at 132 °C. Moreover, the inhibition at 1 µM on HDAC1 enzyme was determined as 5%. For the same compound, the inhibition at 1 µM at HDAC9 enzyme is 37%. Moreover, the inhibition at 1 µM on HDAC6 enzyme came out at 97%.
